Measured values published in patent US20210007356A1, “IMIDE DERIVATIVE AND FUNGICIDE CONTAINING SAID DERIVATIVE AS ACTIVE INGREDIENT” (HOKKO CHEMICAL INDUSTRY CO., LTD., priority 2018, published 2021).
Like-named read-outs stand apart in the source and are kept apart here.

What was measured:
[1] = tested on: rice blast fungus (Pyricularia grisea); format: in vivo; settings: 5 g of granule on nursery box, paddy rice; inoculated after 3 weeks; 7 days after inoculation
[2] = tested on: rice sheath blight fungus (Thanatephorus cucumeris); assay: Test Example 10: control effect against rice sheath blight by water surface application (flowable formulation); settings: flowable 1,000 ppm, 1 mL dripped in paddy water, inoculated after 1 week, 7 days after inoculation
[3] = tested on: rice sheath blight fungus (Thanatephorus cucumeris); assay: Test Example 8: control effect against rice sheath blight by box treatment (granule); settings: 5 g of granule on nursery box, paddy rice; inoculated after 3 weeks; 7 days after inoculation
[4] = tested on: rice blast fungus (Pyricularia grisea); format: in vivo; settings: flowable 5,000 ppm, 50 mL irrigation of nursery box, paddy rice; inoculated after 3 weeks; 7 days after inoculation
[5] = tested on: rice blast fungus (Pyricularia grisea); format: in vivo; settings: flowable 1,000 ppm, 1 mL dripped in paddy water, inoculated after 1 week, 7 days after inoculation
[6] = tested on: rice blast fungus (Pyricularia grisea); format: in vivo; settings: flowable diluted to 100 ppm, 10 mL per pot foliage spray on paddy rice; inoculated day after; 7 days after inoculation
[7] = tested on: rice sheath blight fungus (Thanatephorus cucumeris); assay: Test Example 6: control effect against rice sheath blight by box treatment (flowable formulation); settings: flowable 5,000 ppm, 50 mL irrigation of nursery box, paddy rice; inoculated after 3 weeks; 7 days after inoculation
[8] = tested on: barley powdery mildew fungus (Erysiphe graminis); assay: Test Example 2: control effect against barley powdery mildew by foliage application; format: in vivo; settings: wettable powder diluted to 100 ppm, 10 mL per pot foliage spray on barley; inoculated day after; 7 days after inoculation

Structure (SMILES)	evaluation value of control effect (from control value, number of lesions) [1]	evaluation value of control effect (from control value, lesion height) [2]	evaluation value of control effect (from control value, lesion height) [3]	evaluation value of control effect (from control value, number of lesions) [4]	evaluation value of control effect (from control value, number of lesions) [5]	evaluation value of control effect (from control value, number of lesions) [6]	evaluation value of control effect (from control value, lesion height) [7]	evaluation value of control effect (from control value, lesion area percentage) [8]
Cc1nnsc1C(=O)N(C(=O)c1cn(C)nc1C(F)F)c1ccccc1C(C)CC(C)C (stereo not shown) [1-146, N-{3-(Difluoromethyl)-1-methylpyrazole-4-carbonyl}-N-{2-(1,3-dimethylbutyl)phenyl}-4-methylthiadiazole-5-carboxamide]	5	5	5	5	5	4	5	4
Cc1nc(C(F)F)c(C(=O)N(C(=O)c2snnc2C)c2cccc3c2C(C)OC3(C)C)s1 (stereo not shown) [26-50]	5	5	5	5	5	4	5	4
CC1OC(C)(C)c2cccc(N(C(=O)c3cn(C)nc3C(F)F)C(=O)c3scnc3C(F)F)c21 (stereo not shown) [25-110]	5	5	5	5	5	4	5	4
CC(C)CC(C)c1ccccc1N(C(=O)c1cn(C)nc1C(F)F)C(=O)c1snnc1C(F)F (stereo not shown) [1-237]	5	5	5	5	5	4	5	5
Cc1nn(C)c(F)c1C(=O)N(C(=O)c1cc(Cl)no1)c1ccccc1C(C)CC(C)C (stereo not shown) [1-376]	5	5	5	5	5	4	5	4
Cc1cc(C(=O)N(C(=O)c2scnc2C(F)F)c2ccccc2C(C)CC(C)C)sn1 (stereo not shown) [7-134]	5	5	5	5	5	4	5	4
Cc1nc(C(F)F)c(C(=O)N(C(=O)c2sc(C)nc2C(F)(F)F)c2ccccc2C(C)CC(C)C)s1 (stereo not shown) [7-226]	5	5	5	5	5	4	5	4
CC(C)CC(C)c1ccccc1N(C(=O)c1cccnc1Br)C(=O)c1snc(Cl)c1Cl (stereo not shown) [13-54]	5	5	5	5	5	4	5	4
Cc1nc(C(F)F)c(C(=O)N(C(=O)c2cn(C)nc2C(F)F)c2ccccc2CCC(C)C)s1 [1-313]	5	5	5	5	5	4	5	4
Cc1nc(C(F)F)c(C(=O)N(C(=O)c2scnc2C(F)F)c2cccc3c2C(C)CC3(C)C)s1 (stereo not shown) [26-85]	5	5	5	5	5	4	5	5
CC(C)CC(C)c1ccccc1N(C(=O)c1cc(F)nc(F)c1)C(=O)c1cccnc1C(F)F (stereo not shown) [13-58]	5	5	5	5	5	4	5	5
Cc1nnsc1C(=O)N(C(=O)c1cn(C)nc1C(F)F)c1ccsc1C(C)CC(C)C (stereo not shown) [5-23]	5	5	5	5	5	4	5	5
CC(C)CC(C)c1ccccc1N(C(=O)c1cn(C)nc1C(F)F)C(=O)c1snc(Cl)c1Cl (stereo not shown) [1-35]	5	5	5	5	5	4	5	5
Cc1nc(C(F)F)c(C(=O)N(C(=O)c2scnc2C(F)F)c2ccccc2C(C)CC(C)C)s1 (stereo not shown) [7-262]	5	5	5	5	5	4	5	4
